Measured values published in paper PMC8148385, “A robust photoluminescence screening assay identifies uracil-DNA glycosylase inhibitors against prostate cancer” (Chemical Science, 2020).
Read-outs that look alike come from different tables or passages of the source.

What was measured:
[1] = target: T1, uracil-DNA glycosylase (UDG) (Escherichia coli, UniProt P12295); test: TRES G-quadruplex/iridium probe UDG activity assay with commercial UDG; also fluorescence thermal shift (ca. […] °C); format: biochemical
T1 construct: gene ung
T1 sequence (P12295 2-229): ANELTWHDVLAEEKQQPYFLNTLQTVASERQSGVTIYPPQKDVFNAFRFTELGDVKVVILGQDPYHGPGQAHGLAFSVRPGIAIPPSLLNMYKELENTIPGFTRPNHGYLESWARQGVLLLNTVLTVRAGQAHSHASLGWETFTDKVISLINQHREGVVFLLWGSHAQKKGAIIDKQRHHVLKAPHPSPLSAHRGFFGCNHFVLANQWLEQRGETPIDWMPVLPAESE

[2] = target: T1, uracil-DNA glycosylase (UDG); test: as above; format: biochemical; remark: listed apart in the source
[3] = target: T2, uracil-DNA glycosylase (UDG) (Mus musculus, UniProt P97931); test: CETSA in RM-1 cell lysates; format: cell-based
T2 construct: gene Ung; endogenous UDG in RM-1 cell lysates
T2 sequence (P97931 whole entry): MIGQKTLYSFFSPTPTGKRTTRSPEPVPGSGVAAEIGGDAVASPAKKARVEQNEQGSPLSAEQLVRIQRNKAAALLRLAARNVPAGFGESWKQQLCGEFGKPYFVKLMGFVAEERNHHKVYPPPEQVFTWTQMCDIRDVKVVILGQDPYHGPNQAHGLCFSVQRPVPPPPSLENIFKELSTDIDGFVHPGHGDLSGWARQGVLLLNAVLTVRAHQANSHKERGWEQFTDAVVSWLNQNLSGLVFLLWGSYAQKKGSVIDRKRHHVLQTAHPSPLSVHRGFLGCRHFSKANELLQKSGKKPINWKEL

| Compound | IC50 [1] | IC50 [2] | CETSA in RM-1 cell lysates [3] |
| --- | --- | --- | --- |
| O=[N+]([O-])c1ccc(S(=O)(=O)N2/C(=C\c3ccccc3)C(O)(c3ccccc3)c3ccccc32)cc1 (stereo not drawn) [A8] | 1900 nM |  |  |
| O=C(N/N=C/c1ccc([N+](=O)[O-])o1)c1ccc(O)cc1 [S13, nifuroxazide] |  | ~4000 nM | in the presence of compound A8 and S13, indicating that both of them directly engaged and stabilized UDG |
